Measured values reported in US7947676B2, “Pyrazolo[3,4-d]pyrimidine compounds as antitumor agents” (AstraZeneca AB, priority 2004, dated 2011).

Experiments:
[1] = biological target: T1, erbB2 tyrosine kinase (Homo sapiens, UniProt P04626); assay: Protein tyrosine kinase phosphorylation assay, Test (a), erbB2; type: biochemical; conditions: recombinant intracellular fragment, ATP at Km concentration; read-out: IC50 (μM) Test (a): Inhibition of erbB2 tyrosine kinase protein phosphorylation
T1 construct: Recombinant intracellular fragments of EGFR, erbB2 and erbB4; made in house; host or cells: baculovirus/Sf21 insect cells (cleared lysate)
Procedure: (§1) This test measures the ability of a test compound to inhibit the phosphorylation of a tyrosine containing polypeptide substrate by EGFR, erbB2 and erbB4 tyrosine kinase enzyme.
(§2) Recombinant intracellular fragments of EGFR, erbB2 and erbB4 (accession numbers X00588, X03363 and L07868 respectively) were cloned and expressed in the baculovirus/Sf21 system. […]
(§3) Constitutive kinase activity of these recombinant proteins was determined by their ability to phosphorylate a synthetic peptide (made up of a random co-polymer of Glutamic Acid, Alanine and Tyrosine in the ratio of 6:3:1). […]
(§4) The immobilised phospho-peptide product of the reaction was detected by immunological methods. […] After further washing, HRP activity in each well of the plate was measured colorimetrically using 22′-Azino-di-[3-ethylbenzthiazoline sulfonate (6)] diammonium salt crystals (ABTS™ from Roche) as a substrate.
(§5) Kinase inhibition for a given compound was expressed as an IC50 value. […] The range of phosphorylation was calculated from the positive (vehicle plus ATP) and negative (vehicle minus ATP) control values.

[2] = biological target: T2, erbB2 (Homo sapiens, UniProt P04626); assay: Clone 24 phospho-erbB2 cell assay, Test (d); type: cell-based; conditions: MCF7 derived cell line (Clone 24) overexpressing erbB2, 4 hours; read-out: IC50 (μM) Test (d): Inhibition of phosphorylation of erbB2
T2 construct: to give a cell line that overexpresses full length wild type erbB2 protein; expressed in transfected cells; host or cells: MCF7 (breast carcinoma) derived 'Clone 24' cells
Procedure: The cells were resuspended in Growth Medium.
Plates were returned to the incubator for 4 hours and then 20 μl of 20% formaldehyde solution in PBS was added to each well and the plate was left at room temperature for 30 minutes. This fixative solution was removed with a multichannel pipette, 100 μl of PBS was added to each well and then removed with a multichannel pipette and then 50 μl PBS was added to each well. Plates were then sealed and stored for up to 2 weeks at 4° C.
Immunostaining was performed at room temperature. […] Then this primary antibody solution was removed from the wells using a plate washer followed by two 200 μl PBS/Tween 20 washes using a plate washer. […] From now onwards, wherever possible, plates were protected from light exposure, at this stage by sealing with black backing tape.
The Fluorescence signal is each well was measured using an Acumen Explorer Instrument (Acumen Bioscience Ltd.), a plate reader that can be used to rapidly quantitate features of images generated by laser-scanning. […] Fluorescence dose response data obtained with each compound was exported into a suitable software package (such as Origin) to perform curve fitting analysis. Inhibition of erbB2 phosphorylation was expressed as an IC50 value.

[3] = biological target: T3, EGFR tyrosine kinase (Homo sapiens, UniProt P00533); assay: Protein tyrosine kinase phosphorylation assay, Test (a), EGFR; type: biochemical; conditions: recombinant intracellular fragment, ATP at Km concentration; read-out: IC50 (μM) Test (a): Inhibition of EGFR tyrosine kinase protein phosphorylation
T3 construct: Recombinant intracellular fragments of EGFR, erbB2 and erbB4; made in house; host or cells: baculovirus/Sf21 insect cells (cleared lysate)
Procedure: as §1, §2, §3, §4, §5

T1 sequence (P04626 676-1255 limits assumed): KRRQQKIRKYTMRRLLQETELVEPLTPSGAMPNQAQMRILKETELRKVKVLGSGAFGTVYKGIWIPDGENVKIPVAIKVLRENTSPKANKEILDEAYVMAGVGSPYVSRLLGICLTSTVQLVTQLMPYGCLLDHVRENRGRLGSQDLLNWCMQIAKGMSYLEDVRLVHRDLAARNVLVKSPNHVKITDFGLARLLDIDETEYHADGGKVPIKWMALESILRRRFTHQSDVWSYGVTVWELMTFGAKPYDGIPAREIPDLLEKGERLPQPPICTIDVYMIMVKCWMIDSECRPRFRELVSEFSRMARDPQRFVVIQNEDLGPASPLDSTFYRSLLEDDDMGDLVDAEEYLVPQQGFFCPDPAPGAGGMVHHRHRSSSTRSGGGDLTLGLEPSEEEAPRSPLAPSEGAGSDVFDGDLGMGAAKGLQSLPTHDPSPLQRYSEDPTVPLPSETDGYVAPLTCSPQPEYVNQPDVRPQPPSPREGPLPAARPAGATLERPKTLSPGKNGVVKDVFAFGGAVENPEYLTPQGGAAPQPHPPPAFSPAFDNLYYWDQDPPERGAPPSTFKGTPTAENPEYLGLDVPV
T2 sequence (P04626 23-1255): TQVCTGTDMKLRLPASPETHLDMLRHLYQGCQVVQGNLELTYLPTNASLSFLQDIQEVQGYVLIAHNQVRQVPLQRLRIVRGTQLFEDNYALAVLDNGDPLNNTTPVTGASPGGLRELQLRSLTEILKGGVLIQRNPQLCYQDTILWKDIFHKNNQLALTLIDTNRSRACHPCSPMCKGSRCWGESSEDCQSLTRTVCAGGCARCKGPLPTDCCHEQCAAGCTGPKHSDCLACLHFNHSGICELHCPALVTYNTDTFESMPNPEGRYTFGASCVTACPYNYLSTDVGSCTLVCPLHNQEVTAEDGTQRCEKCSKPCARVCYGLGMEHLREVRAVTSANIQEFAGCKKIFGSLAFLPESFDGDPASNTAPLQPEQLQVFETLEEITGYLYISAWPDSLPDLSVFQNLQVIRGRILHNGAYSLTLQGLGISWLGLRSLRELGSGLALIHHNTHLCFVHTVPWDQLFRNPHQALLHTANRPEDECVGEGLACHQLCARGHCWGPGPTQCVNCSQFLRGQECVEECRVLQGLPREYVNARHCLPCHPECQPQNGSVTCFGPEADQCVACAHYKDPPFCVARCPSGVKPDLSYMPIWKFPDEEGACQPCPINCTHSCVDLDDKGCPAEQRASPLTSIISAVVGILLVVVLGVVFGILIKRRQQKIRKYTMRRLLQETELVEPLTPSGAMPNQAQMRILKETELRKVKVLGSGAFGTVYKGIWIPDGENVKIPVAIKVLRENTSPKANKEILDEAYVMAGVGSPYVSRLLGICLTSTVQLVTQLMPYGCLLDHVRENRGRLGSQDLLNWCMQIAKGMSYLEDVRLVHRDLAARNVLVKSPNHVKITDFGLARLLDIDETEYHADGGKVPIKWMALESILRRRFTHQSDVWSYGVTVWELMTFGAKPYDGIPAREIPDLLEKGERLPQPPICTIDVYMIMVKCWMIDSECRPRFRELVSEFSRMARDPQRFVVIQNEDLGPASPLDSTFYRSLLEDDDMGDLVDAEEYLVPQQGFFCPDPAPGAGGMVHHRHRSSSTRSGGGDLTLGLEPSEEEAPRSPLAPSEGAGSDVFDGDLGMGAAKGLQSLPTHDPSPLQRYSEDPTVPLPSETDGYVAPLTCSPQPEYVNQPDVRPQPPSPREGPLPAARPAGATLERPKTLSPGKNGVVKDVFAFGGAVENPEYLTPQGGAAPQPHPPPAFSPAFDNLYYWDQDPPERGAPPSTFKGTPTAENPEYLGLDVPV
T3 sequence (P00533 669-1210 limits assumed): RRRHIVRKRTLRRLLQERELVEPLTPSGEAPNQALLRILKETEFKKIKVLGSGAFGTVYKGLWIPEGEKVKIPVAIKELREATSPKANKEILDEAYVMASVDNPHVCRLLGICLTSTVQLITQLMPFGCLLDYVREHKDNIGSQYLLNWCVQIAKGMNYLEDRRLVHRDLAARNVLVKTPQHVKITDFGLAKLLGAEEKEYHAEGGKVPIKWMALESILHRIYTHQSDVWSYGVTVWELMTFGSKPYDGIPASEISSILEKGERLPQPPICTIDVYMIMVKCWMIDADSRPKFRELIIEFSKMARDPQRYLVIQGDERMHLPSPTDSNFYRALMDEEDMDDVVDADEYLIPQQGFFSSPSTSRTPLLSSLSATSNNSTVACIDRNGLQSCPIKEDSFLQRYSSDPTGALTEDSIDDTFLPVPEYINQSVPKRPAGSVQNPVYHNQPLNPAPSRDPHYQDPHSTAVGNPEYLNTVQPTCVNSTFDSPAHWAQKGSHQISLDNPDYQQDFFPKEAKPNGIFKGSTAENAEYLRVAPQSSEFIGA

Cc1ccc(Oc2ccc(Nc3ncnc4[nH]nc(OCCN5CCOCC5)c34)cc2C)cn1 [Example 42, N-{3-methyl-4-[(6-methylpyridin-3-yl)oxy]phenyl}-3-(2-morpholin-4-ylethoxy)-1H-pyrazolo[3,4-d]pyrimidin-4-amine]
IC50 [1]: 0.027 µM
IC50 [2]: 0.083 µM
IC50 [3]: 0.71 µM
